# Key:
# [1] = test system: RPMI-8226 human myeloma xenografts; experiment: In vivo BTZ and combination (BTZ and CX-8998) anti-tumor (interference) study, tumor volume; design: species or system athymic nude mouse
# Description: (§1) Care and husbandry of mice complied with USDA (U.S. Department of Agriculture) Animal Welfare Act and START IACUC (Institutional Animal Care and Use Committee) regulations. The protocol was reviewed and approved by START IACUC. Mice were individually housed in Sealsafe® Plus ventilated cages (Techniplast, West Chester, Pa., USA) and fed with Teklad 2919 (Envigo, Somerset, N.J., USA), irradiated, 19% protein, 9% fat and 4% fiber mouse chow. Mice were maintained under controlled environmental conditions (22+/−2° C. temperature, 55+/−10% relative humidity and 12-hour light/dark cycle (7 a.m.-7 p.m.).
# (§2) South Texas Accelerated Research Therapeutics (START) (San Antonio, Tex., USA) conducted this study. […] The 30 mg/kg dose was tolerated in preclinical safety studies and anticipated to result in exposures in excess of the therapeutic range for 28 days. Body weight, TV and animal observations were collected twice per week to day 18 (termination) for vehicle control mice and twice per week to day 28 (termination) for each of the other 3 groups. Mean±SD body weight and TV were analyzed with Kruskal-Wallis and Dunn multiple comparison test at day 18 and with Mann Whitney test at day 28 with statistical significance at p<0.05.
# [2] = CIPN-reversal study: body weight, tolerability, mortality; format: in vivo; settings: rat, in vivo
# Protocol: Rats were housed 2-3 per cage under similar environmental conditions as nude mice in the interference study.
# (§3) Wistar female rats (n=52) (Envigo, Correzzano, Italy) at 10-11 weeks of age were utilized. The study was divided into 2 phases of 4 weeks each. […] Body weight was measured periodically during phase 1 from baseline (day 1) to day 28. At baseline and conclusion of phase 1 (day 28), nerve conduction velocity (NCV) was performed on caudal and sciatic nerves and Dynamic Aesthesiometer Test (DAT) measured mechanical threshold (MT) of the hind paw. […] Body weight was measured periodically from baseline (day 28) to day 56 (termination). NCV and MT were measured in all 4 groups at baseline and on day 35 and 56. […] At termination, sciatic nerves were obtained for β-tubulin polymerization and skin samples were procured for intraepidermal nerve fiber (IENF) density and histopathology.
# [3] = test system: caudal nerves (BTZ-induced CIPN); experiment: CIPN-reversal study: caudal nerve conduction velocity; format: in vivo, Wistar rat
# Protocol: as §3
# (§4) NCV (meters/second) was obtained from caudal and sciatic nerves with an electromyography tool (Myto 2, ABN Neuro, Firenze, Italy). Caudal NCV was measured by placement of recording needle electrodes distally in the tail with stimulating needle electrodes 5 cm and 10 cm proximal to recording point. Peak latencies of potentials recorded at the 2 sites after nerve stimulation were determined and NCV was calculated. Sciatic NCV was determined by placement of needle recording electrodes near ankle bone and stimulating electrodes close to thigh. Peak latencies were recorded similar to caudal nerve and NCV was calculated. NCV was performed under standard conditions in a temperature-controlled facility (22±2° C.) and rats were under isoflurane anesthesia with monitoring of vital signs.
# [4] = test system: sciatic nerves (BTZ-induced CIPN); experiment: CIPN-reversal study: sciatic nerve conduction velocity; format: in vivo, Wistar rat
# Protocol: as §3, §4
# [5] = test system: hind paw mechanical allodynia (BTZ-induced CIPN); experiment: CIPN-reversal study: Dynamic Aesthesiometer Test, mechanical threshold; format: in vivo, Wistar rat
# Protocol: as §3
# MT was assessed with the DAT device (Model 37450, Ugo Basile Biological Instruments, Comerio, Italy). After acclimation, a servo-controlled pointed metallic filament (0.5 mm diameter) was placed on plantar surface of the hind paw and exerted a progressive punctate pressure up to 50 grams within 20 seconds. The pressure elicited a voluntary hind paw withdrawal response that was recorded and represented MT index. MT was collected alternatively on each side every 2 minutes on 3 occasions to yield a mean value. Mean MT values represented maximum pressure (grams) tolerated by each rat. Exposure of each animal to mechanical stimulus was limited to 30 seconds.
# β-tubulin = β-tubulin polymerization assay in sciatic nerve; format: in vivo, Wistar rat; settings: week 8
# Protocol: as §3
# At day 56, animals were euthanized by CO2 inhalation and tissue samples were procured from 4 rats per group. Right sciatic nerve was frozen in liquid nitrogen for β-tubulin polymerization assay and plantar glabrous skin samples were collected for IENF density.
# Protein extracts from sciatic nerves were processed similar to the proteasome assay except for lysis buffer that contained freshly added protease and […] (10 mM sodium orthovanadate, 4 mM phenylmethylsulfonyl fluoride, 1% aprotinin and 20 mM sodium pyrophosphate). Protein extracts were centrifuged (14000 rpm for 10 minutes at 4° C.) to separate soluble (S) free tubulin fractions from polymerized (P) fractions. Supernatants were collected and pellets of polymerized tubulin were resuspended by sonication for 20 seconds in a volume of lysis buffer supplemented with 0.5% sodium deoxycholate (equivalent to S fraction). Protein aliquots (10 μg) were placed onto 13% SDS-PAGE and, after electrophoresis, were transferred to nitrocellulose filters. Immunoblotting analysis was performed using mouse anti-β-tubulin antibody. After incubation with primary antibody, membrane was washed and incubated with horseradish peroxidase conjugated to […] (Perkin Elmer Italia SPA, Monza, Italy). The ECL chemiluminescence system (Amersham GE Healthcare Europe GmbH, Milano, Italy) was used for detection. Band intensity was quantified with Gel Logic 100 Image System (Eastman Kodak, Rochester, N.Y., USA). Final mean values were obtained from triplicate experiments and data were expressed as percentage of P/P+S in treated rats compared to controls.
# [6] = In vivo anti-tumor (interference) study: body weight; design: species or system athymic nude mouse; settings: 1 mg/kg BTZ alone iv twice weekly, 28 days
# Description: as §1, §2
compound,measurement,setting,value
"CC(C)C[C@H](NC(=O)[C@H](Cc1ccccc1)NC(=O)c1cnccn1)B(O)O [BTZ, bortezomib, reference compound]","TUMOR GROWTH DAY 18, Difference in rank sum (Dunn's Multiple Comparison Test)","[1]; Vehicle Control vs BTZ, P < 0.001 ***",13.13
same,tumor volume (TV),"[1]; day 18, BTZ alone 1 mg/kg vs vehicle control, p<0.001",significantly reduced TV
same,tumor volume (TV) trend,"[1]; day 18 through day 28, BTZ alone",tended to increase
same,body weight change,[2],not significantly different
same,tolerability,[2],well tolerated
same,caudal NCV,"[3]; BTZ vs control at weeks 4, 5 and 8 (p<0.01, p<0.05, p<0.001)",significantly reduced
same,"NCV OF CAUDAL NERVE (8 weeks), Difference in rank sum (Dunn's Multiple Comparison Test)","[3]; CTRL vs BTZ, P < 0.001 ***",37.00
same,"NCV OF CAUDAL NERVE (5 weeks), Difference in rank sum (Dunn's Multiple Comparison Test)","[3]; CTRL vs BTZ, P < 0.05 *",15.75
same,sciatic NCV,[4]; BTZ vs control at week 5,numerically less than control but the difference was not statistically significant
same,sciatic NCV,"[4]; BTZ vs control at weeks 4 and 8 (p<0.01, p<0.05)",significantly reduced
same,"NCV OF SCIATIC NERVE (8 weeks), Difference in rank sum (Dunn's Multiple Comparison Test)","[4]; CTRL vs BTZ, P < 0.05 *",22.10
same,"NCV OF SCIATIC NERVE (5 weeks), Difference in rank sum (Dunn's Multiple Comparison Test)","[4]; CTRL vs BTZ, P > 0.05 ns",2.250
same,"DYNAMIC TEST 8 WEEKS, Difference in rank sum (Dunn's Multiple Comparison Test)","[5]; CTRL vs BTZ, P < 0.001 ***",23.19
same,"DYNAMIC TEST 5 WEEKS, Difference in rank sum (Dunn's Multiple Comparison Test)","[5]; CTRL vs BTZ, P < 0.05 *",17.24
same,mechanical threshold (MT) in hind paws,"[5]; week 4, BTZ vs control, p<0.0001",significantly reduced
same,"TUBULIN POLYMERIZATION, Difference in rank sum (Dunn's Multiple Comparison Test)","β-tubulin; CTRL vs BTZ, P < 0.05 *",−14.74
same,β-tubulin polymerization (%),"β-tubulin; BTZ alone vs control, p<0.05",significantly increased
same,body weight,[6],transient body weight loss during first two weeks of treatment and no weight gain at day 18 and 28
